Tests used:
[1] = tested on: tissues of hamsters with eye melanoma; experiment: Distribution of carrier-free lead-203 tris in tissue at various times; assay type: in vivo, hamster
Protocol: The ^203 Pb-tris as described herein was injected in a relatively large number of mice and hamsters which were tumor bearing animals. […]

melanomas, tumors = experiment: Localization / tissue distribution study in tumor bearing animals; assay type: in vivo, mice and hamsters
Protocol: The ^203 Pb-tris as described herein was injected in a relatively large number of mice and hamsters which were tumor bearing animals.

[2] = Toxicity effects from the presence of lead in the blood stream; assay type: in vivo; details: near carrier-free lead-203 complexed with tris
tumors = details: previous attempts reported; cited from earlier work

Lead-203 tris-hydroxymethyl aminomethane
Distribution, Blood ([1]; Time 1, 60 min): 3.870 Percent Uptake per Gram of Tis | Distribution, Blood ([1]; Time 3, 180 min): 3.635 Percent Uptake per Gram of Tis | Distribution, Blood ([1]; Time 6, 360 min): 5.847 Percent Uptake per Gram of Tis | Distribution, Blood ([1]; Time 24, 1440 min): 3.007 Percent Uptake per Gram of Tis | Distribution, Blood ([1]; Time 72, 4320 min): 3.792 Percent Uptake per Gram of Tis | Distribution, Blood ([1]; Time 144, 8640 min): 0.852 Percent Uptake per Gram of Tis | Distribution, Bone ([1]; Time 1, 60 min): 3.977 Percent Uptake per Gram of Tis | Distribution, Bone ([1]; Time 3, 180 min): 3.991 Percent Uptake per Gram of Tis | Distribution, Bone ([1]; Time 6, 360 min): 5.320 Percent Uptake per Gram of Tis | Distribution, Bone ([1]; Time 24, 1440 min): 5.342 Percent Uptake per Gram of Tis | Distribution, Bone ([1]; Time 72, 4320 min): 9.761 Percent Uptake per Gram of Tis | Distribution, Bone ([1]; Time 144, 8640 min): 5.757 Percent Uptake per Gram of Tis | Distribution, Choroid ([1]; Time 1, 60 min): 1.109 Percent Uptake per Gram of Tis | Distribution, Choroid ([1]; Time 3, 180 min): 0.950 Percent Uptake per Gram of Tis | Distribution, Choroid ([1]; Time 6, 360 min): 0.337 Percent Uptake per Gram of Tis | Distribution, Choroid ([1]; Time 24, 1440 min): 0.361 Percent Uptake per Gram of Tis | Distribution, Choroid ([1]; Time 72, * 4 animals, 4320 min): 0.127 Percent Uptake per Gram of Tis | Distribution, Choroid ([1]; Time 144, 8640 min): 0.131 Percent Uptake per Gram of Tis | Distribution, Cornea ([1]; Time 1): 0.834 Percent Uptake per Gram of Tis | Distribution, Cornea ([1]; Time 3): 0.173 Percent Uptake per Gram of Tis | Distribution, Cornea ([1]; Time 6): 0.891 Percent Uptake per Gram of Tis | Distribution, Cornea ([1]; Time 24): 0.200 Percent Uptake per Gram of Tis | Distribution, Cornea ([1]; Time 72, * 4 animals): 0.084 Percent Uptake per Gram of Tis | Distribution, Cornea ([1]; Time 144): 0.062 Percent Uptake per Gram of Tis | Distribution, Gonads ([1]; Time 1, 60 min): 2.076 Percent Uptake per Gram of Tis | Distribution, Gonads ([1]; Time 3, 180 min): 0.238 Percent Uptake per Gram of Tis | Distribution, Gonads ([1]; Time 6, 360 min): 0.663 Percent Uptake per Gram of Tis | Distribution, Gonads ([1]; Time 24, 1440 min): 0.164 Percent Uptake per Gram of Tis | Distribution, Gonads ([1]; Time 144, 8640 min): 0.079 Percent Uptake per Gram of Tis | Distribution, Intestines ([1]; Time 1, 60 min): 0.841 Percent Uptake per Gram of Tis | Distribution, Intestines ([1]; Time 3, 180 min): 0.653 Percent Uptake per Gram of Tis | Distribution, Intestines ([1]; Time 6, 360 min): 1.593 Percent Uptake per Gram of Tis | Distribution, Intestines ([1]; Time 24, 1440 min): 1.664 Percent Uptake per Gram of Tis | Distribution, Intestines ([1]; Time 72, * 4 animals, 4320 min): 2.064 Percent Uptake per Gram of Tis | Distribution, Intestines ([1]; Time 144, 8640 min): 0.217 Percent Uptake per Gram of Tis | Distribution, Kidney ([1]; Time 1, 60 min): 25.32 Percent Uptake per Gram of Tis | Distribution, Kidney ([1]; Time 3, 180 min): 18.156 Percent Uptake per Gram of Tis | Distribution, Kidney ([1]; Time 6, 360 min): 17.703 Percent Uptake per Gram of Tis | Distribution, Kidney ([1]; Time 24, 1440 min): 10.508 Percent Uptake per Gram of Tis | Distribution, Kidney ([1]; Time 72, 4320 min): 17.443 Percent Uptake per Gram of Tis | Distribution, Kidney ([1]; Time 144, 8640 min): 3.904 Percent Uptake per Gram of Tis | Distribution, Lens ([1]; Time 1, 60 min): 0.017 Percent Uptake per Gram of Tis | Distribution, Lens ([1]; Time 3, 180 min): 0.023 Percent Uptake per Gram of Tis | Distribution, Lens ([1]; Time 6, 360 min): 0.021 Percent Uptake per Gram of Tis | Distribution, Lens ([1]; Time 24, 1440 min): 0.005 Percent Uptake per Gram of Tis | Distribution, Lens ([1]; Time 72, * 4 animals, 4320 min): 0.006 Percent Uptake per Gram of Tis | Distribution, Lens ([1]; Time 144, 8640 min): 0.005 Percent Uptake per Gram of Tis | Distribution, Liver ([1]; Time 1, 60 min): 5.463 Percent Uptake per Gram of Tis | Distribution, Liver ([1]; Time 3, 180 min): 4.273 Percent Uptake per Gram of Tis | Distribution, Liver ([1]; Time 6, 360 min): 7.188 Percent Uptake per Gram of Tis | Distribution, Liver ([1]; Time 24, 1440 min): 3.729 Percent Uptake per Gram of Tis | Distribution, Liver ([1]; Time 72, 4320 min): 4.841 Percent Uptake per Gram of Tis | Distribution, Liver ([1]; Time 144, 8640 min): 2.331 Percent Uptake per Gram of Tis | Distribution, Melanoma-Eye ([1]; Time 1, 60 min): 1.048 Percent Uptake per Gram of Tis | Distribution, Melanoma-Eye ([1]; Time 3, 180 min): 0.976 Percent Uptake per Gram of Tis | Distribution, Melanoma-Eye ([1]; Time 6, 360 min): 1.609 Percent Uptake per Gram of Tis | Distribution, Melanoma-Eye ([1]; Time 24, 1440 min): 1.314 Percent Uptake per Gram of Tis | Distribution, Melanoma-Eye ([1]; Time 72, * 4 animals, 4320 min): 0.724 Percent Uptake per Gram of Tis | Distribution, Melanoma-Eye ([1]; Time 144, 8640 min): 0.821 Percent Uptake per Gram of Tis | Distribution, Melanoma-Skin ([1]; Time 1, 60 min): 1.095 Percent Uptake per Gram of Tis | Distribution, Melanoma-Skin ([1]; Time 3, 180 min): 1.051 Percent Uptake per Gram of Tis | Distribution, Melanoma-Skin ([1]; Time 6, 360 min): 1.209 Percent Uptake per Gram of Tis | Distribution, Melanoma-Skin ([1]; Time 24, 1440 min): 0.845 Percent Uptake per Gram of Tis | Distribution, Melanoma-Skin ([1]; Time 72, 4320 min): 1.010 Percent Uptake per Gram of Tis | Distribution, Melanoma-Skin ([1]; Time 144, 8640 min): 0.749 Percent Uptake per Gram of Tis | Distribution, Muscle ([1]; Time 1): 0.159 Percent Uptake per Gram of Tis | Distribution, Muscle ([1]; Time 3): 0.100 Percent Uptake per Gram of Tis | Distribution, Muscle ([1]; Time 6): 0.090 Percent Uptake per Gram of Tis | Distribution, Muscle ([1]; Time 24): 0.026 Percent Uptake per Gram of Tis | Distribution, Muscle ([1]; Time 72): 0.041 Percent Uptake per Gram of Tis | Distribution, Muscle ([1]; Time 144, 8640 min): 0.027 Percent Uptake per Gram of Tis | Distribution, Normal-Eye ([1]; Time 1, 60 min): 0.200 Percent Uptake per Gram of Tis | Distribution, Normal-Eye ([1]; Time 3, 180 min): 0.086 Percent Uptake per Gram of Tis | Distribution, Normal-Eye ([1]; Time 6, 360 min): 0.111 Percent Uptake per Gram of Tis | Distribution, Normal-Eye ([1]; Time 24, 1440 min): 0.054 Percent Uptake per Gram of Tis | Distribution, Normal-Eye ([1]; Time 72, 4320 min): 0.084 Percent Uptake per Gram of Tis | Distribution, Normal-Eye ([1]; Time 144, 8640 min): 0.047 Percent Uptake per Gram of Tis | Distribution, Normal-Skin ([1]; Time 1, 60 min): 0.401 Percent Uptake per Gram of Tis | Distribution, Normal-Skin ([1]; Time 3, 180 min): 0.256 Percent Uptake per Gram of Tis | Distribution, Normal-Skin ([1]; Time 6, 360 min): 0.286 Percent Uptake per Gram of Tis | Distribution, Normal-Skin ([1]; Time 24, 1440 min): 0.090 Percent Uptake per Gram of Tis | Distribution, Normal-Skin ([1]; Time 72, 4320 min): 0.122 Percent Uptake per Gram of Tis | Distribution, Normal-Skin ([1]; Time 144, 8640 min): 0.071 Percent Uptake per Gram of Tis | Distribution, Retina ([1]; Time 1, 60 min): 0.169 Percent Uptake per Gram of Tis | Distribution, Retina ([1]; Time 3, 180 min): 0.074 Percent Uptake per Gram of Tis | Distribution, Retina ([1]; Time 6, 360 min): 0.251 Percent Uptake per Gram of Tis | Distribution, Retina ([1]; Time 24, 1440 min): 0.206 Percent Uptake per Gram of Tis | Distribution, Retina ([1]; Time 72, * 4 animals, 4320 min): 0.091 Percent Uptake per Gram of Tis | Distribution, Retina ([1]; Time 144, 8640 min): 0.127 Percent Uptake per Gram of Tis | Distribution, Vitreous ([1]; Time 1, 60 min): 0.031 Percent Uptake per Gram of Tis | Distribution, Vitreous ([1]; Time 3, 180 min): 0.028 Percent Uptake per Gram of Tis | Distribution, Vitreous ([1]; Time 6, 360 min): 0.036 Percent Uptake per Gram of Tis | Distribution, Vitreous ([1]; Time 24, 1440 min): 0.031 Percent Uptake per Gram of Tis | Distribution, Vitreous ([1]; Time 72, * 4 animals, 4320 min): 0.014 Percent Uptake per Gram of Tis | Distribution, Vitreous ([1]; Time 144, 8640 min): 0.018 Percent Uptake per Gram of Tis | Ability to localize in melanomas (melanomas, tumors; extensive studies): has the ability to localize in melanomas, especially those of the eye | Uptake of ^203 Pb by the tumors (melanomas, tumors; tumor bearing mice and hamsters, injected, tissue distribution): selective uptake by the tumors | Toxicity effects from the presence of lead in the blood stream [2]: avoided or minimized

lead
Outcome of previous attempts to use lead as agent for the treatment of tumors (tumors): apparently failed to produce useful results due to the toxicity of lead in the bloodstream
